Data set [1] in a line: In vitro serum stability assay (HPLC) of In-111 labeled peptide. Particulars: human serum, 37EC, 4 hours. It is filed as in vitro ADME, human. In short, it runs like this:
(§1)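 The peptide was labeled with ^111InCl3 in sodium acetate/ascorbic acid buffer for 30 min at room temperature, then diluted in 5% ethanol/PBS. It was incubated at 37 °C in human serum or rat urine for set times. Filtered aliquots were analyzed by HPLC.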

Data set [2] in a line: In vitro urine stability assay (HPLC) of In-111 labeled peptide. Particulars: rat urine, 37EC, 4 hours. It is filed as in vitro ADME. In short, it runs like this: as §1
The target in data set [3] is neurotensin receptors (Homo sapiens, UniProt P30989). Kind of data set: Competitive binding assay on frozen tissue sections of receptor-positive human tumors vs radioiodinated native neurotensin. Particulars: for Kd: Table 3. The source says:
Frozen tissue sections from receptor-positive human tumors were used in a competitive binding assay.

Molecules are shown by their SMILES. Where a SMILES comes first, the peptide text is derived from it. [ ]: non-standard residue; d: D form. The star is where a group is joined. ξ: configuration not given here. DTPA = O=C(O)CN(CCN(CC(=O)O)CC(=O)O)CCN(CC(=O)O)CC(=O)*; ξGly(4-Pip(1-amidino)) = N=C(N)N1CCC(C(N)C(=O)O)CC1; ξPhe(4-guanidino) = N=C(N)Nc1ccc(CC(N)C(=O)O)cc1; ξGly(piperidin-4-yl) = NC(C(=O)O)C1CCNCC1; Dmt = Cc1cc(O)cc(C)c1C[C@H](N)C(=O)O; Pro(4-oxo) = O=C1CN[C@H](C(=O)O)C1; tBuAla = CC(C)(C)C[C@H](N)C(=O)O; Cha = N[C@@H](CC1CCCCC1)C(=O)O; Tle = CC(C)(C)[C@H](N)C(=O)O; Pip = O=C(O)[C@@H]1CCCCN1; dPip = O=C(O)[C@H]1CCCCN1; Ac6c = NC1(C(=O)O)CCCCC1; Aze = O=C(O)[C@@H]1CCN1 Some results are limits rather than exact numbers.

The source of these data is patent publication US7015306B2 (BioSynthema, Inc., priority 1999, dated 2006).

Sequence of neurotensin receptors (P30989 whole entry): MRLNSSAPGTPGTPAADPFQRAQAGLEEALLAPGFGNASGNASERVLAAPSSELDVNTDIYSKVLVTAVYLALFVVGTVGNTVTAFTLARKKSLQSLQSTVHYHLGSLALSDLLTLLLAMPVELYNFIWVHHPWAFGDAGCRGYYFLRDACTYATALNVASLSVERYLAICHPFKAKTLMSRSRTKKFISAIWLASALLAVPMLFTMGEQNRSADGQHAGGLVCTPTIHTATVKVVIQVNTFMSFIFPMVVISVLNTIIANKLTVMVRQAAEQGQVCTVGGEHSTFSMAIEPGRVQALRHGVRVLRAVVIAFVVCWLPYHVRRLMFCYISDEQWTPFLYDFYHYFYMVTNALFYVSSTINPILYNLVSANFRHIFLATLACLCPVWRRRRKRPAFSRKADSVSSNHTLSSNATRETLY

What is called IC50 is the concentration that inhibits the measured activity by half. Read a high IC50 as a need for much substance. One may read the Kd as the concentration at which binding is half-saturated. Read a high Kd as a looser complex. For `CC(C)C[C@H](NC(=O)[C@@H](NC(=O)[C@H](Cc1ccc(O)cc1)NC(=O)[C@@H]1CCCN1C(=O)[C@H](CCCNC(=N)N)NC(=O)C(Cc1ccc(NC(=N)N)cc1)NC(=O)[C@@H]1CCCN1C(=O)[C@@H](CCCCN)NC(=O)CN(CCN(CCN(CC(=O)O)CC(=O)O)CC(=O)O)CC(=O)O)C(C)(C)C)C(=O)O` (stereo partly drawn) [Compound IX, DTPA-DLys-Pro-Phe(4-guanyl)-Arg-Pro-Tyr-tBuGly-Leu-OH] ({DTPA}-[dK]P[ξPhe(4-guanidino)]RPY[Tle]L-OH), in data set [1], the “% of peptide at 4 hours after incubation at 37EC, Serum” value (from here on “% of peptide at 4 hours … Serum”) came to 72.0%. Further, the “% of peptide at 4 hours after incubation at 37EC, Urine” value (“% of peptide at 4 hours … Urine” for short) in data set [2] is given as 51.1%. In data set [3] (C-terminus modified derivatives), this compound registered an IC50 of 12.5 nM. In data set [3], this compound came in with a Kd of 12.5 nM.
Consider `CC(C)C[C@H](NC(=O)[C@@H](NC(=O)[C@H](Cc1ccc(O)cc1)NC(=O)[C@@H]1CCCN1C(=O)[C@H](CCCNC(=N)N)NC(=O)C(NC(=O)[C@@H]1CCCN1C(=O)C(NC(=O)CN(CCN(CCN(CC(=O)O)CC(=O)O)CC(=O)O)CC(=O)O)C1CCNCC1)C1CCN(C(=N)N)CC1)C(C)(C)C)C(=O)O` (stereo partly drawn) [Compound XI, DTPA-PipGly-Pro-Gly(PipAm)-Arg-Pro-Tyr-tBuGly-Leu-OH] ({DTPA}-[ξGly(piperidin-4-yl)]P[ξGly(4-Pip(1-amidino))]RPY[Tle]L-OH), for which the “% of peptide at 4 hours … Serum” value in data set [1] is listed as 95.9%. Besides, the “% of peptide at 4 hours … Urine” value in data set [2] came out at 93.6%. The same compound registered a Kd in data set [3] of 3.9 nM.
The matching figures for `CC(C)C[C@H](NC(=O)[C@@H](NC(=O)[C@H](Cc1ccc(O)cc1)NC(=O)[C@@H]1CCCN1C(=O)[C@H](CCCNC(=N)N)NC(=O)C(NC(=O)[C@@H]1CCCN1C(=O)[C@H](CCCCN)NC(=O)[C@H](CC(N)=O)NC(=O)[C@H](CCC(=O)O)NC(=O)[C@@H](Cc1ccc(O)cc1)NC(=O)CN(CCN(CCN(CC(=O)O)CC(=O)O)CC(=O)O)CC(=O)O)C1CCN(C(=N)N)CC1)C(C)(C)C)C(=O)O` (stereo partly drawn) [Compound XIII, DTPA-DTyr-Glu-Asn-Lys-Pro-Gly(PipAm)-Arg-Pro-Tyr-tBuGly-Leu-OH] ({DTPA}-[dY]ENKP[ξGly(4-Pip(1-amidino))]RPY[Tle]L-OH): 94.9%, 86.8% and 4.5 nM.
As for `CC(C)(C)[C@H](NC(=O)[C@H](Cc1ccc(O)cc1)NC(=O)[C@@H]1CCCN1C(=O)[C@H](CCCNC(=N)N)NC(=O)C(NC(=O)[C@@H]1CCCN1C(=O)[C@H](CCCCN)NC(=O)[C@H](CC(N)=O)NC(=O)[C@H](CCC(=O)O)NC(=O)[C@@H](Cc1ccc(O)cc1)NC(=O)CN(CCN(CCN(CC(=O)O)CC(=O)O)CC(=O)O)CC(=O)O)C1CCN(C(=N)N)CC1)C(=O)N[C@@H](CC1CCCCC1)C(=O)O` (stereo partly drawn) [Compound XIV, DTPA-DTyr-Glu-Asn-Lys-Pro-Gly(PipAm)-Arg-Pro-Tyr-tBuGly-Cha-OH] ({DTPA}-[dY]ENKP[ξGly(4-Pip(1-amidino))]RPY[Tle][Cha]-OH), in data set [1], the “% of peptide at 4 hours … Serum” value is 93.9%. Moreover, the “% of peptide at 4 hours … Urine” value in data set [2] was found to be 81.8%. Besides, the Kd in data set [3] turned out to be 4.5 nM.
The matching figures for `CC(C)(C)C[C@H](NC(=O)[C@@H](NC(=O)[C@H](Cc1ccc(O)cc1)NC(=O)[C@@H]1CCCN1C(=O)[C@H](CCCNC(=N)N)NC(=O)C(NC(=O)[C@@H]1CCCN1C(=O)[C@H](CCCCN)NC(=O)[C@H](CC(N)=O)NC(=O)[C@H](CCC(=O)O)NC(=O)[C@@H](Cc1ccc(O)cc1)NC(=O)CN(CCN(CCN(CC(=O)O)CC(=O)O)CC(=O)O)CC(=O)O)C1CCN(C(=N)N)CC1)C(C)(C)C)C(=O)O` (stereo partly drawn) [Compound XV, DTPA-DTyr-Glu-Asn-Lys-Pro-Gly(PipAm)-Arg-Pro-Tyr-tBuGly-tBuAla-OH] ({DTPA}-[dY]ENKP[ξGly(4-Pip(1-amidino))]RPY[Tle][tBuAla]-OH): 98.9%, 89.8% and 3.5 nM.
The matching figures for `CC(C)C[C@H](NC(=O)[C@@H](NC(=O)[C@H](Cc1ccc(O)cc1)NC(=O)[C@@H]1CCCN1C(=O)[C@H](CCCNC(=N)N)NC(=O)C(NC(=O)[C@@H]1CCN1C(=O)[C@@H](CCCCN)NC(=O)CN(CCN(CCN(CC(=O)O)CC(=O)O)CC(=O)O)CC(=O)O)C1CCN(C(=N)N)CC1)C(C)(C)C)C(=O)O` (stereo partly drawn) [DTPA-DLys-AzeCA-Gly(PipAm)-Arg-Pro-Tyr-tBuGly-Leu-OH] ({DTPA}-[dK][Aze][ξGly(4-Pip(1-amidino))]RPY[Tle]L-OH): 79.5%, 49.8% and 24 nM.
For `CC[C@H](C)[C@H](NC(=O)[C@H](Cc1ccc(O)cc1)NC(=O)[C@@H]1CCCN1C(=O)C(Cc1ccc(NC(=N)N)cc1)NC(=O)C(Cc1ccc(NC(=N)N)cc1)NC(=O)[C@@H]1CCCN1C(=O)[C@@H](CCCCN)NC(=O)CN(CCN(CCN(CC(=O)O)CC(=O)O)CC(=O)O)CC(=O)O)C(=O)N[C@@H](CC(C)C)C(=O)O` (stereo partly drawn) [DTPA-DLys-Pro-(4-Gu)Phe-(4-Gu)Phe-Pro-Tyr-Ile-Leu-OH] ({DTPA}-[dK]P[ξPhe(4-guanidino)][ξPhe(4-guanidino)]PYIL-OH) the same measures were 25.2%, 2.3% and 175 nM.
`CC(C)C[C@H](NC(=O)[C@@H](NC(=O)[C@H](Cc1ccc(O)cc1)NC(=O)[C@@H]1CC(=O)CN1C(=O)[C@H](CCCNC(=N)N)NC(=O)C(NC(=O)[C@@H]1CCCN1C(=O)[C@@H](CCCCN)NC(=O)CN(CCN(CCN(CC(=O)O)CC(=O)O)CC(=O)O)CC(=O)O)C1CCN(C(=N)N)CC1)C(C)(C)C)C(=O)O` (stereo partly drawn) [DTPA-DLys-Pro-Gly(PipAm)-Arg-(4-oxo)Pro-Tyr-tBuGly-Leu-OH] ({DTPA}-[dK]P[ξGly(4-Pip(1-amidino))]R[Pro(4-oxo)]Y[Tle]L-OH): the “% of peptide at 4 hours … Serum” value in data set [1] is reported as 78.5%. For the same compound, the “% of peptide at 4 hours … Urine” value in data set [2] is reported as 79.7%. Further, in data set [3], the dissociation constant (Kd) is more than 1000 nM.
For `CC(C)C[C@H](NC(=O)[C@@H](NC(=O)[C@H](Cc1ccc(O)cc1)NC(=O)[C@@H]1CCN1C(=O)[C@H](CCCNC(=N)N)NC(=O)C(NC(=O)[C@@H]1CCCN1C(=O)[C@@H](CCCCN)NC(=O)CN(CCN(CCN(CC(=O)O)CC(=O)O)CC(=O)O)CC(=O)O)C1CCN(C(=N)N)CC1)C(C)(C)C)C(=O)O` (stereo partly drawn) [DTPA-DLys-Pro-Gly(PipAm)-Arg-AzeCA-Tyr-tBuGly-Leu-OH] ({DTPA}-[dK]P[ξGly(4-Pip(1-amidino))]R[Aze]Y[Tle]L-OH), the “% of peptide at 4 hours … Serum” value in data set [1] worked out at 79.2%. In addition, the “% of peptide at 4 hours … Urine” value in data set [2] is on record as 36.5%. For the same compound, the Kd in data set [3] was 740 nM.
For `CC(C)C[C@H](NC(=O)[C@@H](NC(=O)[C@H](Cc1ccc(O)cc1)NC(=O)[C@H]1CCCCN1C(=O)[C@H](CCCNC(=N)N)NC(=O)C(NC(=O)[C@@H]1CCCN1C(=O)[C@@H](CCCCN)NC(=O)CN(CCN(CCN(CC(=O)O)CC(=O)O)CC(=O)O)CC(=O)O)C1CCN(C(=N)N)CC1)C(C)(C)C)C(=O)O` (stereo partly drawn) [DTPA-DLys-Pro-Gly(PipAm)-Arg-DPipCA-Tyr-tBuGly-Leu-OH] ({DTPA}-[dK]P[ξGly(4-Pip(1-amidino))]R[dPip]Y[Tle]L-OH) the same measures were 96.2%, 91.9% and more than 1000 nM.
For `CC(C)C[C@H](NC(=O)[C@@H](NC(=O)[C@H](Cc1ccc(O)cc1)NC(=O)[C@@H]1CCCCN1C(=O)[C@H](CCCNC(=N)N)NC(=O)C(NC(=O)[C@@H]1CCCN1C(=O)[C@@H](CCCCN)NC(=O)CN(CCN(CCN(CC(=O)O)CC(=O)O)CC(=O)O)CC(=O)O)C1CCN(C(=N)N)CC1)C(C)(C)C)C(=O)O` (stereo partly drawn) [DTPA-DLys-Pro-Gly(PipAm)-Arg-PipCA-Tyr-tBuGly-Leu-OH] ({DTPA}-[dK]P[ξGly(4-Pip(1-amidino))]R[Pip]Y[Tle]L-OH) the same measures were 69.5%, 45.8% and more than 1000 nM.
For `Cc1cc(O)cc(C)c1C[C@H](NC(=O)[C@@H]1CCCN1C(=O)[C@H](CCCNC(=N)N)NC(=O)C(NC(=O)[C@@H]1CCCN1C(=O)[C@@H](CCCCN)NC(=O)CN(CCN(CCN(CC(=O)O)CC(=O)O)CC(=O)O)CC(=O)O)C1CCN(C(=N)N)CC1)C(=O)N[C@H](C(=O)N[C@@H](CC(C)C)C(=O)O)C(C)(C)C` (stereo partly drawn) [DTPA-DLys-Pro-Gly(PipAm)-Arg-Pro-(2,6-diMe)Tyr-tBuGly-Leu-OH] ({DTPA}-[dK]P[ξGly(4-Pip(1-amidino))]RP[Dmt][Tle]L-OH) the same measures were 96.6%, 99.2% and 45 nM.
In the case of `CC(C)C[C@H](NC(=O)C1(NC(=O)[C@H](Cc2ccc(O)cc2)NC(=O)[C@@H]2CCCN2C(=O)[C@H](CCCNC(=N)N)NC(=O)C(NC(=O)[C@@H]2CCCN2C(=O)[C@@H](CCCCN)NC(=O)CN(CCN(CCN(CC(=O)O)CC(=O)O)CC(=O)O)CC(=O)O)C2CCN(C(=N)N)CC2)CCCCC1)C(=O)O` (stereo partly drawn) [DTPA-DLys-Pro-Gly(PipAm)-Arg-Pro-Tyr-Achc-Leu-OH] ({DTPA}-[dK]P[ξGly(4-Pip(1-amidino))]RPY[Ac6c]L-OH), the “% of peptide at 4 hours … Serum” value in data set [1] was determined as 89.9%. For the same compound, the “% of peptide at 4 hours … Urine” value in data set [2] is given as 84.9%. The same compound gave a Kd in data set [3] of more than 10000 nM.
For `CC(C)(C)[C@H](NC(=O)[C@H](Cc1ccc(O)cc1)NC(=O)[C@@H]1CCCN1C(=O)[C@H](CCCNC(=N)N)NC(=O)C(NC(=O)[C@@H]1CCCN1C(=O)[C@@H](CCCCN)NC(=O)CN(CCN(CCN(CC(=O)O)CC(=O)O)CC(=O)O)CC(=O)O)C1CCN(C(=N)N)CC1)C(=O)N[C@@H](CC1CCCCC1)C(=O)O` (stereo partly drawn) [DTPA-DLys-Pro-Gly(PipAm)-Arg-Pro-Tyr-tBuGly-Cha-OH] ({DTPA}-[dK]P[ξGly(4-Pip(1-amidino))]RPY[Tle][Cha]-OH) the same measures were 81.2%, 65.9% and 12 nM.
